From PMC10451377, “Rationally Designed Pyrimidine Compounds: Promising Novel Antibiotics for the Treatment of Staphylococcus aureus-Associated Bovine Mastitis” (Antibiotics, 2023)
≈ marks a conversion by molar mass, not a printed value. Where two headings read alike, the source gives them in different places.

Assays:
[1] = tested on: Staphylococcus aureus CMRSA-10; assay: Broth microdilution MIC; assay type: cell-based
Excerpt: (§1) Reference strains for this study (S. aureus ATCC 29213, ATCC 29740 [bovine mastitis strain Newbould], S. epidermidis ATCC 12228, E. coli ATCC 35695, E. faecalis ATCC 29212) were obtained from the American Type Culture Collection (ATCC, Rockville, MD). S. aureus strains CMRSA-10 and CMRSA-2 were obtained from the Laboratoire de santé publique du Québec (LSPQ, Sainte-Anne-de-Bellevue, QC, Canada) and are Canadian CA-MRSA USA-300 and HA-MRSA USA-100 clones, respectively. The strain E. coli imp4213 (lptD), used as a control in MIC assays, is a derivative of E. coli ATCC 35695 (E. coli MC4100) with an increased membrane permeability. […] Other MRSA strains used in this study are clinical isolates of human origin obtained from the microbiology laboratory of the Centre Hospitalier Universitaire de Sherbrooke (CHUS, Sherbrooke, QC, Canada). Bovine mastitis strains (S. aureus, S. chromogenes, S. haemolyticus, S. hominis, S. simulans) were obtained from the Canadian Bovine Mastitis and Milk Quality Research Network (CBRQMN, St-Hyacinthe, QC, Canada). Among these strains, S. aureus 2117 is a high producer of biofilm and was used in the biofilm-eradication assay. S. epidermidis isolates were provided by Centre de Recherche en Infectiologie (CRI) de Québec (Québec, QC, Canada).

[2] = tested on: Staphylococcus aureus CMRSA-2; assay: Broth microdilution MIC; assay type: cell-based
Excerpt: as §1

[3] = tested on: Bacillus subtilis xpt-lacZ; assay: Broth microdilution MIC; assay type: cell-based; conditions: B. subtilis xpt-lacZ, read-out: Broth Microdilution MIC
[4] = set-up: method as in PMID 20421948; conditions: presence of water and oxygen; cited from earlier work
[5] = tested on: S. aureus guanine riboswitch; set-up: method as in PMID 20421948; conditions: cited from earlier work
S. aureus = tested on: S. aureus; set-up: method as in PMID 20421948; conditions: compared with PC1; cited from earlier work
[6] = tested on: Escherichia coli ΔlptD4213; assay: microbe, parasite or virus in culture; assay type: cell-based; conditions: read-out: Broth Microdilution MIC
Excerpt: as §1

[7] = tested on: guanine riboswitch-lacZ fusion construct (xpt-lacZ); assay: Riboswitch regulation assay (lacZ-gene reporter); assay type: cell-based, B. subtilis
Excerpt: The novel pyrimidine compounds, especially PC206, display specificity and potency against some staphylococci but not the other bacterial genus (Table 1 and Table 2). Because they are structurally derived from PC1 and PC2, these novel antibiotic candidates are expected to have the same mode of action. […] To verify this hypothesis, a strain of B. subtilis with a guanine riboswitch-lacZ fusion construct (named xpt-lacZ) integrated in its chromosome was exposed to these new antimicrobials. […] Therefore, it is an adequate reporter species. The metabolization of substrate ONPG into colored ONP was normalized by the bacterial suspension absorbance at 600 nm (Miller units) and relativized to the untreated condition.
β-galactosidase gene expression in the presence of the new pyrimidine analogs was studied, using an xpt-lacZ transcriptional fusion construct integrated in the genome of B. subtilis as previously described. Briefly, cultures were grown for 5 h at 35 °C in CAMHB, from an initial optical density of 0.05 at 600 nm (OD600), and then diluted 1:20 and in the presence of different concentrations of the compounds tested. Cultures were centrifuged for 10 min at 13,100 rpm, the supernatant was discarded, and pellets were suspended in a Z-buffer (NaH2PO4 40 mM, Na2HPO4 60 mM, MgSO4 1 mM, KCl 10 mM). Cultures OD600 were measured, and bacteria were then lysed with lysozyme (1 mg/mL) and β-mercaptoethanol 50 mM for 30 min. Lysates were centrifuged for 10 min at 13,100 rpm, and supernatants were incubated for 5 min at 30 °C with the substrate orthonitrophenyl-β-galactoside (ONPG; Sigma Aldrich). Reactions were stopped with Na2CO3 1M, supernatants OD420 were measured, and Miller units were calculated. A decrease in β-galactosidase activity indicated binding of the test compound to the riboswitch. Guanine and oxacillin were used as […] controls, respectively. The formula to measure Miller units is as follows: Millerunits=1000×OD420/t·v·OD600
Here, t represents the time of incubation with ONPG, and v represents the volume of the reaction.

MTT assay [8] = assay type: cell-based; conditions: human, HepG2 cells
MTT assay [9] = assay type: cell-based; conditions: bovine, MAC-T cells, 24 h
LDH release assay [10] = assay type: cell-based; conditions: human, HepG2 cells
LDH release assay [11] = assay type: cell-based; conditions: bovine, MAC-T cells, 24 h
[12] = tested on: HepG2 and MAC-T cells versus S. aureus Newbould; assay: Selectivity ratios over both assays and both cell lines; assay type: cell-based; conditions: over MTT and LDH assays
Experimental: All CC50 values are reported in Table 3, and plots are provided in the Supplementary Information (Supplementary Figure S2). PC371 had no effect on cell viability even at the highest concentrations tested (CC50 > 600 μM) in both the MTT and the LDH assay and for the two cell lines tested. For the three other compounds, in both cell lines and both assays, a correlation was observed between the effect on cell viability and the length of their aliphatic chain. CC50 of PC372 (5 carbons) was higher than that of PC206 (6 carbons), and both were higher than that of PC383 (10 carbons). Indeed, for the MAC-T cells in the MTT assay, the values were >600 μM (PC372), 317 μM (PC206), and 13.5 μM (PC383). Again, for the MAC-T cell line, the values for the LDH assay were >600 μM (PC372 and PC206) and 23.6 μM (PC383). Similar results were obtained with the HepG2 cells. […] Overall, the MAC-T cells tolerated better exposure to the compounds than the HepG2 cells. To assess the selectivity of the PC2 analogs towards S. aureus, selectivity ratios were calculated. These ratios were obtained by dividing the cytotoxicity CC50 values of an analog by its MIC against S. aureus Newbould. It was not possible to calculate the selectivity ratio for PC371 as its CC50 and MIC values exceeded the maximum values tested.

[13] = tested on: Staphylococcus aureus ATCC 29213; assay: Broth microdilution MIC; conditions: ATCC29213, read-out: Broth Microdilution MIC
[14] = tested on: Staphylococcus epidermidis ATCC 12228; assay: Broth microdilution MIC; conditions: ATCC12228, read-out: Broth Microdilution MIC
[15] = tested on: Enterococcus faecalis ATCC 29212; assay: Broth microdilution MIC; conditions: ATCC29212, read-out: Broth Microdilution MIC
[16] = tested on: Escherichia coli ATCC 35695; assay: Broth microdilution MIC; conditions: ATCC35695, read-out: Broth Microdilution MIC
[17] = tested on: all reference staphylococci strains tested, including MRSA; assay: Broth microdilution MIC, summary over reference staphylococci; conditions: Staphylococcus aureus, read-out: MIC ranging, against all reference staphylococci strains tested
[18] = tested on: all tested bacterial strains, including non-staphylococci strains; assay: Broth microdilution MIC, summary over all strains tested; conditions: read-out: MIC against all tested bacterial strains
[19] = CMRSA10, S. aureus CMRSA-10, read-out: Broth Microdilution MIC
[20] = CMRSA2, S. aureus CMRSA-2, read-out: Broth Microdilution MIC

Row | Compound | Chemical stability [4] | Binding to the guanine riboswitch [5] | MIC [1, 19] [µg/mL] | MIC [2, 20] [µg/mL] | MIC [6] [µg/mL] | MIC [3] [µg/mL] | CC50 at 24 h (MTT assay [8]) [µM] | CC50 at 24 h (MTT assay [9]) [µM] | CC50 at 24 h (LDH release assay [10]) [µM] | CC50 at 24 h (LDH release assay [11]) [µM] | Selectivity ratio (CC50/MIC against S. aureus Newbould), overall [12] | MIC [13] [µg/mL] | MIC [14] [µg/mL] | MIC [15] [µg/mL] | MIC [16] [µg/mL] | further results
1 | Nc1nc(N)c(N)c(O)n1 [PC1, 2,5,6-triaminopyrimidine-4-one, reference compound] | chemically unstable | binding the guanine riboswitch of S. aureus | – | – | – | – | – | – | – | – | – | – | – | – | – | MIC ([1]; CMRSA10, S. aureus CMRSA-10, in the presence of 1.5 mM DTT, read-out: Broth Microdilution MIC): 2 µg/mL; MIC ([2]; CMRSA2, S. aureus CMRSA-2, in the presence of 1.5 mM DTT, read-out: Broth Microdilution MIC): 1 µg/mL; MIC ([3]; in the presence of 1.5 mM DTT): > 128 µg/mL
2 | Nc1cc(O)nc(N)n1 [PC2] | more chemically stable | bind the riboswitch ex vivo | – | – | – | – | – | – | – | – | – | – | – | – | – | Antimicrobial activity against S. aureus (S. aureus): much lower antimicrobial activity
3 | CCCCCNc1cc(N)nc(N)n1 [PC372] | – | – | 8 (≈ 41 µM) | 16 (≈ 81.9 µM) | > 128 | 128 (≈ 656 µM) | 341 ± 32 | > 600 | 394 ± 15 | > 600 | above 3.9 | 16 (≈ 81.9 µM) | 8 (≈ 41 µM) | > 128 | > 128 | Miller units remaining, relative to the untreated condition ([7]; 64 µg/mL): 50%; MIC [17]: 8 to 16 µg/mL (≈ 41 to 81.9 µM)
4 | CCCCCCCCCCNc1cc(N)nc(N)n1 [PC383] | – | – | 4 (≈ 15.1 µM) | 4 (≈ 15.1 µM) | 8 (≈ 30.1 µM) | 4 (≈ 15.1 µM) | 11.7 ± 5.8 | 13.5 ± 1.5 | 6.6 ± 0.7 | 23.6 ± 8.4 | ~1 | 4 (≈ 15.1 µM) | 4 (≈ 15.1 µM) | 4 (≈ 15.1 µM) | 16 (≈ 60.3 µM) | Effect on Miller units ([7]; highest evaluated dose 2 µg/mL): did not impact Miller units’ expression; MIC [18]: 4 to 16 µg/mL (≈ 15.1 to 60.3 µM)
